Patent US11873317B2, “Galectin-3 inhibiting c-glycosides” (GLYCOMIMETICS, INC., priority 2018, dated 2024)

biological target: T1, galectin-3 (Homo sapiens, UniProt P17931); experiment: Galectin-3 Activity ELISA assay: inhibition of binding of galectin-3 to a Galβ1-3GlcNAc carbohydrate structure; conditions: galectin-3 binding to immobilized Galβ1-3GlcNAc polymer, A450 readout, read-out: IC50 Galectin-3 Antagonist Activity
T1 construct: purchased IBL IBATGP0414
Protocol: Galectin-3 antagonists were evaluated for their ability to inhibit binding of galectin-3 to a Galβ1-3GlcNAc carbohydrate structure. The detailed protocol was as follows. A 1 ug/mL suspension of a Galβ1-3GlcNAcβ1-3Galβ1-4GcNAcβ-PAA-biotin polymer (Glycotech, catalog number 01-096) was prepared. A 100 uL aliquot of the polymer was added to the wells of a 96-well streptavidin-coated plate (R&D Systems, catalog number CP004). A 100 uL aliquot of IX Tris Buffered Saline (TBS, Sigma, catalog number T5912-10×) was added to control wells. The polymer was allowed to bind to the streptavidin-coated wells for 1.5 hours at room temperature. The contents of the wells were discarded and 200 uL of 1×TBS containing 1% bovine serum albumin (BSA) was added to each well as a blocking reagent and the plate was kept at room temperature for 30 minutes. The wells were washed three times with IX TBS containing 0.1% BSA. A serial dilution of test compounds was prepared in a separate V-bottom plate (Corning, catalog number 3897). A 75 uL aliquot of the highest concentration of the compound to be tested was added to the first well in a column of the V-bottom plate then 15 ul were serially transferred into 60 uL IX TBS through the remaining wells in the column to generate a 1 to 5 serial dilution. A 60 uL aliquot of 2 ug/mL galectin-3 (IBL, catalog number IBATGP0414) was added to each well in the V-bottom plate. A 100 uL aliquot of the galectin-3/test compound mixture was transferred from the V-bottom plate into the assay plate containing the Galβ1-3GlcNAc polymer. Four sets of control wells in the assay plate were prepared in duplicate containing 1) both Galβ1-3GlcNAc polymer and galectin-3, 2) neither the polymer nor galectin-3, 3) galectin-3 only, no polymer, or 4) polymer only, no galectin-3. The plate was gently rocked for 1.5 hours at room temperature. The wells were washed four times with TBS/0.1% BSA. A 100 uL aliquot of anti-galectin-3 antibody conjugated to horse radish peroxidase (R&D Systems, from DGAL30 kit) was added to each well and the plate was kept at room temperature for 1 hour. The wells were washed four times with TBS/0.1% BSA. A 100 uL aliquot of TMB substrate solution was added to each well. The TMB substrate solution was prepared by making a 1:1 mixture of TMB Peroxidase Substrate (KPL, catalog number 5120-0048) and Peroxidase Substrate Solution B (KPL, catalog number 5120-0037). The plate was kept at room temperature for 10 to 20 minutes. The color development was stopped by adding 100 uL 10% phosphoric acid (RICCA Chemical Co., catalog number 5850-16). The absorbance at 450 nm (A450) was measured using a FlexStation 3 plate reader (Molecular Devices). Plots of A450 versus test compound concentration and IC50 determinations were made using GraphPad Prism 6.

T1 sequence (P17931 whole entry): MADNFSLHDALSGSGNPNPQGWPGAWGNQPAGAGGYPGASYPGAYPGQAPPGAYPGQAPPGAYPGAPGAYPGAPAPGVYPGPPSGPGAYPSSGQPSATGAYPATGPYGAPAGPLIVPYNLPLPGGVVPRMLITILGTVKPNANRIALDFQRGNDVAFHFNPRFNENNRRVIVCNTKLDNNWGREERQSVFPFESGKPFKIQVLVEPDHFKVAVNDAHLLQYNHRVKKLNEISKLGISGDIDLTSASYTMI

Q: Which IC50 does the source give for COC(=O)[C@@H](OCc1ccccc1)[C@@H]1OC(CO)[C@H](O)C(n2cc(-c3cc(F)c(F)c(F)c3)nn2)C1O (stereo partly shown) [Compound 13] here?
A: 3480 nM

Q: For CNC(=O)[C@@H](OCc1ccc2ccccc2c1)[C@@H]1OC(CO)[C@H](O)C(n2cc(-c3cc(F)c(F)c(F)c3)nn2)C1O (stereo partly shown) [Compound 16], which IC50 is on record?
A: 530 nM

Q: CNC(=O)[C@@H](OCc1cccc(-c2ccccc2)c1)[C@@H]1OC(CO)[C@H](O)C(n2cc(-c3cc(F)c(F)c(F)c3)nn2)C1O (stereo partly shown) [Compound 17] was tested. Which IC50 did it give?
A: 2560 nM

Q: With CNC(=O)[C@@H](OCc1cccc(C(=O)OC)c1)[C@@H]1OC(CO)[C@H](O)C(n2cc(-c3cc(F)c(F)c(F)c3)nn2)C1O (stereo partly shown) [Compound 18] as the molecule, how does the IC50 read?
A: 670 nM

Q: CNC(=O)[C@@H](OCc1ccc(Cl)cc1)[C@@H]1OC(CO)[C@H](O)C(n2cc(-c3cc(F)c(F)c(F)c3)nn2)C1O (stereo partly shown) [Compound 19] was tested. Which IC50 did it give?
A: 320 nM

Q: With CNC(=O)[C@@H](OCc1cccc(Cl)c1)[C@@H]1OC(CO)[C@H](O)C(n2cc(-c3cc(F)c(F)c(F)c3)nn2)C1O (stereo partly shown) [Compound 20] as the molecule, how does the IC50 read?
A: 1520 nM

Q: How did the IC50 turn out when CNC(=O)[C@@H](OCc1cccc(OC(F)(F)F)c1)[C@@H]1OC(CO)[C@H](O)C(n2cc(-c3cc(F)c(F)c(F)c3)nn2)C1O (stereo partly shown) [Compound 21] was run?
A: 1940 nM

Q: CNC(=O)[C@@H](OCc1ccc(F)cc1)[C@@H]1OC(CO)[C@H](O)C(n2cc(-c3cc(F)c(F)c(F)c3)nn2)C1O (stereo partly shown) [Compound 24] was tested. Which IC50 did it give?
A: 1720 nM

Q: With CNC(=O)[C@@H](OCc1ccc(F)c(F)c1)[C@@H]1OC(CO)[C@H](O)C(n2cc(-c3cc(F)c(F)c(F)c3)nn2)C1O (stereo partly shown) [Compound 25] as the molecule, how does the IC50 read?
A: 1080 nM

Q: For CNC(=O)[C@@H](OCc1ccc(C(F)(F)F)cc1)[C@@H]1OC(CO)[C@H](O)C(n2cc(-c3cc(F)c(F)c(F)c3)nn2)C1O (stereo partly shown) [Compound 26], which IC50 is on record?
A: 350 nM

Q: With CNC(=O)[C@@H](OCc1ccc(F)c(Cl)c1)[C@@H]1OC(CO)[C@H](O)C(n2cc(-c3cc(F)c(F)c(F)c3)nn2)C1O (stereo partly shown) [Compound 27] as the molecule, how does the IC50 read?
A: 2090 nM

Q: With CNC(=O)[C@@H](OCc1ccc(S(C)(=O)=O)cc1)[C@@H]1OC(CO)[C@H](O)C(n2cc(-c3cc(F)c(F)c(F)c3)nn2)C1O (stereo partly shown) [Compound 28] as the molecule, how does the IC50 read?
A: 690 nM

Q: CNC(=O)[C@@H](OCc1ccc(C(=O)OC)cc1)[C@@H]1OC(CO)[C@H](O)C(n2cc(-c3cc(F)c(F)c(F)c3)nn2)C1O (stereo partly shown) [Compound 29] was tested. Which IC50 did it give?
A: 4600 nM

Q: How did the IC50 turn out when CNC(=O)[C@@H](OCc1ccc(OC(F)(F)F)cc1)[C@@H]1OC(CO)[C@H](O)C(n2cc(-c3cc(F)c(F)c(F)c3)nn2)C1O (stereo partly shown) [Compound 30] was run?
A: 4980 nM

Q: With CNC(=O)[C@@H](OCc1ccc(Cl)c(F)c1)[C@@H]1OC(CO)[C@H](O)C(n2cc(-c3cc(F)c(F)c(F)c3)nn2)C1O (stereo partly shown) [Compound 31] as the molecule, how does the IC50 read?
A: 180 nM

Q: How did the IC50 turn out when CNC(=O)[C@@H](OCc1ccc(OC)cc1)[C@@H]1OC(CO)[C@H](O)C(n2cc(-c3cc(F)c(F)c(F)c3)nn2)C1O (stereo partly shown) [Compound 32] was run?
A: 2810 nM

Q: With CNC(=O)[C@@H](OCc1ccc(C2CC2)cc1)[C@@H]1OC(CO)[C@H](O)C(n2cc(-c3cc(F)c(F)c(F)c3)nn2)C1O (stereo partly shown) [Compound 33] as the molecule, how does the IC50 read?
A: 1640 nM

Q: Which IC50 does the source give for CNC(=O)[C@@H](OCc1cccnc1)[C@@H]1OC(CO)[C@H](O)C(n2cc(-c3cc(F)c(F)c(F)c3)nn2)C1O (stereo partly shown) [Compound 34] here?
A: 850 nM

Q: With CCCCNC(=O)[C@@H](OCc1ccccc1)[C@@H]1OC(CO)[C@H](O)C(n2cc(-c3cc(F)c(F)c(F)c3)nn2)C1O (stereo partly shown) [Compound 35] as the molecule, how does the IC50 read?
A: > 100000 nM

Q: How did the IC50 turn out when CNC(=O)[C@@H](OCc1ccccc1)[C@@H]1OC(CO)[C@H](O)C(n2cc(-c3cc(F)c(F)c(F)c3)nn2)C1O (stereo partly shown) [Compound 36] was run?
A: 3860 nM

Q: With CNC(=O)[C@@H](OCc1ccccc1)[C@@H]1OC(CO)[C@H](O)[C@H](n2cc(-c3cc(F)c(F)c(F)c3)nn2)C1OC (stereo partly shown) [Compound 40] as the molecule, how does the IC50 read?
A: 2610 nM

Q: With COC1[C@H]([C@H](OCc2ccccc2)C(=O)N(C)C)OC(CO)[C@H](O)[C@@H]1n1cc(-c2cc(F)c(F)c(F)c2)nn1 (stereo partly shown) [Compound 41] as the molecule, how does the IC50 read?
A: 9580 nM

Q: With COC1C(n2cc(-c3cc(F)c(F)c(F)c3)nn2)[C@@H](O)C(CO)O[C@H]1[C@H](OCc1ccc(Cl)cc1)C(=O)N(C)C (stereo partly shown) [Compound 42] as the molecule, how does the IC50 read?
A: 2060 nM

Q: How did the IC50 turn out when COC1C(n2cc(-c3cc(F)c(F)c(F)c3)nn2)[C@@H](O)C(CO)O[C@H]1[C@H](OCc1ccc(Cl)cc1)C(=O)Nc1ccccc1F (stereo partly shown) [Compound 69] was run?
A: 230 nM

Q: Which IC50 does the source give for COC1C(n2cc(-c3cc(F)c(F)c(F)c3)nn2)[C@@H](O)C(CO)O[C@H]1[C@H](OCc1ccc(Cl)cc1)C(=O)NCC(F)(F)F (stereo partly shown) [Compound 70] here?
A: 720 nM
